Assay results reported in ChEMBL document CHEMBL4507268 (2021).

Columns and labels:
Conditions in all cases: Compound concentration 1.0 uM
[1] = target: T1, Serine/threonine-protein kinase Chk1 (Homo sapiens) (UniProt O14757)
T1 sequence (whole entry): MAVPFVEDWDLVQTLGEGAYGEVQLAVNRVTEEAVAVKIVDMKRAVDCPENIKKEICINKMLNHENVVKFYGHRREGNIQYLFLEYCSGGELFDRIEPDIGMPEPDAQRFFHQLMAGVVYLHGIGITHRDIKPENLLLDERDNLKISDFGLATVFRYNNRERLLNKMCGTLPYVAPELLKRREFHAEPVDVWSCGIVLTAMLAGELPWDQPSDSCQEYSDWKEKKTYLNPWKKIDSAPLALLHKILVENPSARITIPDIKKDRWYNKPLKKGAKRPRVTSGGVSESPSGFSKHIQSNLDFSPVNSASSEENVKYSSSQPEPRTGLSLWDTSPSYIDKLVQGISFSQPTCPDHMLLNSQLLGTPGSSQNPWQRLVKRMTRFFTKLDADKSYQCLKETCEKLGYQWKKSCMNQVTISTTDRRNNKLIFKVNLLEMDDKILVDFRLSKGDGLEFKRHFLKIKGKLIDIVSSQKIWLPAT

[2] = target: Mast/stem cell growth factor receptor Kit (Homo sapiens) (UniProt P10721)
Sequence of Mast/stem cell growth factor receptor Kit (Homo sapiens) (P10721 whole entry): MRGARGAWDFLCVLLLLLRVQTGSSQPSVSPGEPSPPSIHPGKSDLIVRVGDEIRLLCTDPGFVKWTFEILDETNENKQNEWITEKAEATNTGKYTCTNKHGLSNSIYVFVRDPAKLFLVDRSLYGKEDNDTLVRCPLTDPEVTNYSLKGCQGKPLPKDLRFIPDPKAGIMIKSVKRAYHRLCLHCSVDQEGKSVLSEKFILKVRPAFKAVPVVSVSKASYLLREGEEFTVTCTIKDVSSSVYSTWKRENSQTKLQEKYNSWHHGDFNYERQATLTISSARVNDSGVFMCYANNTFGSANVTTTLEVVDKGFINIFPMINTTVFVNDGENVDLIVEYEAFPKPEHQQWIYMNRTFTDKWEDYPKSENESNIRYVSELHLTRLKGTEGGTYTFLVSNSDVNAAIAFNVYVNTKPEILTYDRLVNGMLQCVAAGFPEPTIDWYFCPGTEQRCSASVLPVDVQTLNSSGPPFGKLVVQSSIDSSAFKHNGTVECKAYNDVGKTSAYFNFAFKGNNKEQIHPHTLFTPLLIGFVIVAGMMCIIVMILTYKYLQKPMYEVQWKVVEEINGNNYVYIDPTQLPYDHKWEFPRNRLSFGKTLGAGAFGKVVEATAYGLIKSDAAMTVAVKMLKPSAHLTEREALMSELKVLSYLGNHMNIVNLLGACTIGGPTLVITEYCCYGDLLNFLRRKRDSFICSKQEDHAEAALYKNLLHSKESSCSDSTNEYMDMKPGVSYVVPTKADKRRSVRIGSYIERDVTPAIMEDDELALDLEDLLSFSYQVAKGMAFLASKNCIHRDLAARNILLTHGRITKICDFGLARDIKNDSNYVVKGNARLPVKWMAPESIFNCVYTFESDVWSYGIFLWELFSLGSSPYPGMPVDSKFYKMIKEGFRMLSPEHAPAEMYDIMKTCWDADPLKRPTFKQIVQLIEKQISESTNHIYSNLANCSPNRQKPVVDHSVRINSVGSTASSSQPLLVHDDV

[3] = target: Eukaryotic translation initiation factor 2-alpha kinase 1 (Homo sapiens) (UniProt Q9BQI3)
Sequence of Eukaryotic translation initiation factor 2-alpha kinase 1 (Homo sapiens) (Q9BQI3 whole entry): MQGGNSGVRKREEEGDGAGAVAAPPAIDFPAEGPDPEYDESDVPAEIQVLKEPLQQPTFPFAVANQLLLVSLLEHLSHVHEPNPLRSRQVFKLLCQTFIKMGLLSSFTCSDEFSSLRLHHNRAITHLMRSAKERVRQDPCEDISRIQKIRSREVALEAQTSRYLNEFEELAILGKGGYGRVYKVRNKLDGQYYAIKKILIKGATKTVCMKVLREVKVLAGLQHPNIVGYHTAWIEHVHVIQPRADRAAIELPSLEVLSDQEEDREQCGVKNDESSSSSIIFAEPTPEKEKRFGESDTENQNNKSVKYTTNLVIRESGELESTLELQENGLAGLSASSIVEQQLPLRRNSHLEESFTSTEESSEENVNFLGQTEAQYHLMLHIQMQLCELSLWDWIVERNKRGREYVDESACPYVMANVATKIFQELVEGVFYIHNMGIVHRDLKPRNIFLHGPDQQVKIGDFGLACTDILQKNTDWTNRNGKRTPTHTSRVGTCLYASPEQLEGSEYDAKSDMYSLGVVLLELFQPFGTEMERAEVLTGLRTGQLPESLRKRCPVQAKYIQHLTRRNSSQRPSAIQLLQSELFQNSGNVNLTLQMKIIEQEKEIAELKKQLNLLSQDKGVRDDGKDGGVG

[4] = target: T2, Serine/threonine-protein kinase STK11 (Homo sapiens) (UniProt Q15831)
T2 sequence (whole entry): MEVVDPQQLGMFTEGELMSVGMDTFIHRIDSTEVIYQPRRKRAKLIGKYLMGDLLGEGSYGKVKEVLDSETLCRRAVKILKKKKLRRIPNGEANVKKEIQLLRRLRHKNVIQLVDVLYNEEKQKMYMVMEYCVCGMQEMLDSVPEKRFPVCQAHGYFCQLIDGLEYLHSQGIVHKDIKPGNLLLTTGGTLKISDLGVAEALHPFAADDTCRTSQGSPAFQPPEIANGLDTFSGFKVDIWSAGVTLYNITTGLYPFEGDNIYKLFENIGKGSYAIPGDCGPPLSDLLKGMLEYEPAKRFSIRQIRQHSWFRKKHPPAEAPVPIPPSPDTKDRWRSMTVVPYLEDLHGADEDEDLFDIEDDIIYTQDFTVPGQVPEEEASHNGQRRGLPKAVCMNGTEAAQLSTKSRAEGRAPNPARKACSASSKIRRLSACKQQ

[5] = target: Mitogen-activated protein kinase kinase kinase 10 (Homo sapiens) (UniProt Q02779)
Sequence of Mitogen-activated protein kinase kinase kinase 10 (Homo sapiens) (Q02779 whole entry, looked up): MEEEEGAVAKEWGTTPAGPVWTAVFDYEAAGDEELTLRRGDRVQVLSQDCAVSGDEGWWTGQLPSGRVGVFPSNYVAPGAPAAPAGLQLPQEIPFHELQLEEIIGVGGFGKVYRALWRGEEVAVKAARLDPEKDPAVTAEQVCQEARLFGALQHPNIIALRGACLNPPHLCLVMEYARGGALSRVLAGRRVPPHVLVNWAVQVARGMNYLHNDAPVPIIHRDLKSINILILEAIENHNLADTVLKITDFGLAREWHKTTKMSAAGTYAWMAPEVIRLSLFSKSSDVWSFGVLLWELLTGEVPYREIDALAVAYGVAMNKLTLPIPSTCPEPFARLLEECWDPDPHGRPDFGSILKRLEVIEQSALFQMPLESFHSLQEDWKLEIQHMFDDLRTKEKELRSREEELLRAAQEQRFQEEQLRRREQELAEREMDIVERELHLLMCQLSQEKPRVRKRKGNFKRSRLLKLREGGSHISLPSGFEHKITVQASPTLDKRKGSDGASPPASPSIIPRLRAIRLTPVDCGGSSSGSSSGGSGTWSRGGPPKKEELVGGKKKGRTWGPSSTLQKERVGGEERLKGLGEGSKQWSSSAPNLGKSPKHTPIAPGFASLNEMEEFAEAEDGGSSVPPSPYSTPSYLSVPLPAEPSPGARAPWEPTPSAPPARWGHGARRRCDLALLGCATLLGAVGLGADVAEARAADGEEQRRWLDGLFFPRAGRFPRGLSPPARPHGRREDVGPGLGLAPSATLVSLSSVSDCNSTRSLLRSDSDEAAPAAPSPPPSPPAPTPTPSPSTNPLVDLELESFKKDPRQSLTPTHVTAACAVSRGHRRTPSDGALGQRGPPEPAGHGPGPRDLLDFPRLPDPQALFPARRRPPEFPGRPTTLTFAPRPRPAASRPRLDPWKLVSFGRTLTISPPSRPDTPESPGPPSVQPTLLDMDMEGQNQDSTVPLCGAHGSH

[6] = target: T3, Serine/threonine-protein kinase Nek9 (Homo sapiens) (UniProt Q8TD19)
T3 sequence (whole entry): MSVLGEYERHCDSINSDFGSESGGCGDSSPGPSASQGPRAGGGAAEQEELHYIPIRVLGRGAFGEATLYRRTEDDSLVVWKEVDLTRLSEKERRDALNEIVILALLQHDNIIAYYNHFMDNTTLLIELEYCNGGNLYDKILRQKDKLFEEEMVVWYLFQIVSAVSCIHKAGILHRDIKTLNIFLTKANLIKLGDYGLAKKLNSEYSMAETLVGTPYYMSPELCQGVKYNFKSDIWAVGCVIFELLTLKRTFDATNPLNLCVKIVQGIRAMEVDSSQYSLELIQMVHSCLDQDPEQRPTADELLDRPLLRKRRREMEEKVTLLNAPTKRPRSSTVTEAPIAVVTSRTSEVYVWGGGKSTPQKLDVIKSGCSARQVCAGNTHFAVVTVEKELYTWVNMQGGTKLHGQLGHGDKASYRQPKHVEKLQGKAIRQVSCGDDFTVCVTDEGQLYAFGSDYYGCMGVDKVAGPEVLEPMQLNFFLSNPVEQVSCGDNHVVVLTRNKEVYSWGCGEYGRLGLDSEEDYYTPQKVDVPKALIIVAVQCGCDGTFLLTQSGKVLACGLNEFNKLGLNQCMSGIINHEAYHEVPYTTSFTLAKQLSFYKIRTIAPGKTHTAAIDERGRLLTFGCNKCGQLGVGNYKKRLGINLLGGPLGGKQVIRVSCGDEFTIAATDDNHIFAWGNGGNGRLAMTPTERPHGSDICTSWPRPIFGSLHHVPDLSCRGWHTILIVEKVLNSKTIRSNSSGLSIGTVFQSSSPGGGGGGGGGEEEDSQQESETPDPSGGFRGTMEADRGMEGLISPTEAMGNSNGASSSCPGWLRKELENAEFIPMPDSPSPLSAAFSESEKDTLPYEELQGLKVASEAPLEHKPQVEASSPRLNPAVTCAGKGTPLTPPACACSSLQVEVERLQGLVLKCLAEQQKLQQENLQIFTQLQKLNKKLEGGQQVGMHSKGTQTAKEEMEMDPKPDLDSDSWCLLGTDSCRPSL

[7] = target: T4, Mitogen-activated protein kinase kinase kinase 7 (Homo sapiens) (UniProt O43318)
T4 sequence (whole entry): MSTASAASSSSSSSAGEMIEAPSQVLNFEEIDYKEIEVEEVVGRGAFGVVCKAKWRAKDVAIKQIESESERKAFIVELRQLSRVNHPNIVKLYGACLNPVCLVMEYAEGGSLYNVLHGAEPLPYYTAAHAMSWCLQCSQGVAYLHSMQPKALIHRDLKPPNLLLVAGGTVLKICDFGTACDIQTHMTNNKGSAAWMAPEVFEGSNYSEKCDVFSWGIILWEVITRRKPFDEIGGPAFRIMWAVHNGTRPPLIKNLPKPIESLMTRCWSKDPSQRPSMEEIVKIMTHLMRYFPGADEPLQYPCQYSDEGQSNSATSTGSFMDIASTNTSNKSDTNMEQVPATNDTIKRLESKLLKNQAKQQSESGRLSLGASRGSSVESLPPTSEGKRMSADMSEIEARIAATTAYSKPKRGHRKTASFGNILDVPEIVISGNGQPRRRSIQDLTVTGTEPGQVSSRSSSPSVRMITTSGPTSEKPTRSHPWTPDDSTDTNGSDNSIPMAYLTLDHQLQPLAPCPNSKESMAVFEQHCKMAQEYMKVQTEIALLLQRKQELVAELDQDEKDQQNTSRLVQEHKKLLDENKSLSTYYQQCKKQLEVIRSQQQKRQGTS

Measured: % residual kinase activity

CN1CCN(c2cnc3c(C4CCN(C(=O)c5ccc(OC(F)(F)F)cc5N)CC4)ncnc3c2)CC1 [BAY-885]
inactive: [1] 89% | [2] 104% | [3] 104% | [4] 104% | [5] 107% | [6] 92% | [7] 107%
